Measurements reported in ChEMBL document CHEMBL1148875, “Benzopyrans as selective estrogen receptor beta agonists (SERBAs). Part 2: structure-activity relationship studies on the benzopyran scaffold” (Bioorg Med Chem Lett, 2007).

Columns and labels:
[1] = biological target: Estrogen receptor beta (Homo sapiens, UniProt Q92731); test: Binding affinity to human ERbeta
[2] = biological target: T1, Estrogen receptor (Homo sapiens, UniProt P03372); test: Binding affinity to human ERalpha
T1 sequence (P03372 whole entry): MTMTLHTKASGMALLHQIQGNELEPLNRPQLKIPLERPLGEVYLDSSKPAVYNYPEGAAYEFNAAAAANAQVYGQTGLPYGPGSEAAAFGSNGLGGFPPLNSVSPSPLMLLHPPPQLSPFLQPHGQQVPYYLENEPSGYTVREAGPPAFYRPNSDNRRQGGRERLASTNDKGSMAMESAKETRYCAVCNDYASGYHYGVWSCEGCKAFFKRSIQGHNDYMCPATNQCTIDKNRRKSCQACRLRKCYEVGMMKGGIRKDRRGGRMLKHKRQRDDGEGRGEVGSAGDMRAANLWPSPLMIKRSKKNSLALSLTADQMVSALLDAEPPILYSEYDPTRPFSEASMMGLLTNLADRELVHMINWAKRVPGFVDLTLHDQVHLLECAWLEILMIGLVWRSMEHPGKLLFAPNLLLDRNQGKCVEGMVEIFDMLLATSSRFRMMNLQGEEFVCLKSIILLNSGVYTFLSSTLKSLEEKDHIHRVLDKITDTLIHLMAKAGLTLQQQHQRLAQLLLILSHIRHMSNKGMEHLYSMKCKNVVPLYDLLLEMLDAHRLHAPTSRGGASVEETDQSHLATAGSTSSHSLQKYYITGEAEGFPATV

Chain of Estrogen receptor beta (Q92731 whole entry): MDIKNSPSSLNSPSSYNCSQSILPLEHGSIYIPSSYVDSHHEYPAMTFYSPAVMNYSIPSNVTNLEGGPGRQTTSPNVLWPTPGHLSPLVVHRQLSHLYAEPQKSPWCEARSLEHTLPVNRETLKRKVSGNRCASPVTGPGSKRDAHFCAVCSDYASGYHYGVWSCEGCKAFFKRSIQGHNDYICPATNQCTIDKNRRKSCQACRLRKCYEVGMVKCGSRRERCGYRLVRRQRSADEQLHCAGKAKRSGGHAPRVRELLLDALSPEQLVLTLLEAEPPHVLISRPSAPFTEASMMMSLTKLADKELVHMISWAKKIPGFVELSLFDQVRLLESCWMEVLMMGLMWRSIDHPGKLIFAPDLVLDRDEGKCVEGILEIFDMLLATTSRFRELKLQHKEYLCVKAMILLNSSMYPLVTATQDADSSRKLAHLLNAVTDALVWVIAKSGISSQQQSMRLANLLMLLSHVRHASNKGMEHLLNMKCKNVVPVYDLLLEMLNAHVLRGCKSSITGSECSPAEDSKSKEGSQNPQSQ

Row | Ki [2] [nM] | SMILES | Ki [1] [nM]
1 | 65 | Oc1cccc([C@H]2Oc3ccc(O)cc3[C@H]3CCC[C@H]32)c1 | –
2 | 40 | Oc1ccc([C@H]2Oc3ccccc3[C@H]3CCC[C@H]32)cc1 | 22.1
3 | 41 | Oc1ccc([C@H]2Oc3cc(O)ccc3[C@H]3CCC[C@H]32)cc1 | 18.9

More lines, now with the values behind:

Row | SMILES | Ki [2] [nM] | Ki [1] [nM]
4 | Oc1ccc([C@@H]2CCc3cc(O)ccc3O2)cc1 | – | 20.8
5 | Oc1ccc([C@H]2Oc3ccc(O)cc3[C@H]3CCCC[C@H]32)cc1 | 2.88 | 0.63
6 | Oc1ccc([C@H]2Oc3ccc(O)cc3[C@H]3CCCCC[C@H]32)cc1 | 6.11 | 0.88
7 | Oc1ccc([C@H]2Oc3cccc(O)c3[C@H]3CCC[C@H]32)cc1 | 0.35 | 0.66
8 | Oc1ccc2c(c1)[C@H]1CCC[C@H]1[C@@H](c1ccccc1)O2 | 267 | –
